Read-outs that look alike come from different tables or passages of the source. One block for each compound: values may come before it.
What was measured:
p34^cdc2/cyclinB = test: p34cdc2/cyclin B kinase assay (histone H1 phosphorylation, [γ-32P] ATP); assay type: biochemical, starfish (Marthasterias glacialis)
Protocol: J. Biochem., 243, (1997), 527-536). […] After 10 min. incubation at 30°C, 25 μl aliquots of supernatant were spotted onto 2.5 x 3 cm pieces of Whatman P81 phosphocellulose paper, and after 20 sec., the filters were washed five times (for at least 5 min. each time) in a solution of 10 ml phosphoric acid/liter of water. The wet filters were transferred into 6 ml plastic scintillation vials, 5 ml ACS (Amersham) scintillation fluid was added and the radioactivity measured in a Packard scintillation counter.

[1] = compared with indirubine; cited from earlier work
PKC [2] = test: PKC inhibition (specificity panel); assay type: biochemical; conditions: Ca2+-dependent protein kinase, Table 3
cdc25 = cdc25 inhibition (specificity panel); assay type: biochemical; conditions: Table 3
CDK2/ cyclin A = CDK2/ cyclin A (Homo sapiens, UniProt P24941); test: biochemical
CDK2/ cyclin E = CDK2/ cyclin E (Homo sapiens, UniProt P24941); test: biochemical
CDK5/ p35 = CDK5/ p35 (Homo sapiens, UniProt Q00535); test: kinase inhibition selectivity, CDK5/p35; assay type: biochemical
CDK4/ cyclin D1 = CDK4/ cyclin D1 (Homo sapiens, UniProt P11802); test: kinase inhibition selectivity, CDK4/cyclin D1; assay type: biochemical
[3] = test system: chronic myelogenous leukemia; conditions: cases of chronic myelogenous leukemia; cited from earlier work
MAPK = conditions: Table 1, known inhibitors; cited from earlier work
PKC [4] = conditions: Table 1, known inhibitors; cited from earlier work
CDK1 = conditions: Table 1, known inhibitors; roscovitine value for racemic mixture; cited from earlier work
[5] = target: epidermal growth factor receptor tyrosine kinase (Homo sapiens, UniProt P00533); conditions: Table 1, known inhibitors; read-out: IC50 Tyrosine-kinase (EGF-R); cited from earlier work
[6] = test system: MCF-7 mammary carcinoma cells; test: induction of apoptotic cell death in cell culture; assay type: cell-based, human
Protocol: (§1) An inhibition of p34^cdc2-kinase by indigoid bisindole derivatives is not described in the prior art. […] In concentrations ≥ 5 µM, an additional arrest at G2/M-phase of the cell cycle became apparent.

CDK1/cyclin B = test: histone H1 phosphorylation as a measure for CDK1/cyclin B activity in cell culture; assay type: cell-based, human; conditions: after 24 h incubation of MCF-7 mammary carcinoma cells
From the text: An inhibition of p34^cdc2-kinase by indigoid bisindole derivatives is not described in the prior art.

[7] = test system: MCF-7 mammary carcinoma cells; test: growth inhibition in cell culture; assay type: cell-based; conditions: Homo sapiens, MCF7, 72 h; after 3 days incubation; 50% growth inhibition as compared to vehicle control
Protocol: as §1

[8] = test system: MCF-7 mammary carcinoma cells; test: cell cycle arrest in cell culture; assay type: cell-based, human
Protocol: as §1

PKG = conditions: Table 1, known inhibitors; cited from earlier work
[9] = cdc2 kinase, Table 3, read-out: IC50 cdc2
[10] = calculated from dose response curves, Table 4, read-out: IC50 CDK1/ cyclin B
[11] = calculated from dose response curves, Table 4, read-out: IC50 CDK5/ p35
[12] = cells arrested by serum deprivation, treatment for 24 h in serum containing medium

CDK5/ p35, sequence (Q00535 whole entry, species assumed): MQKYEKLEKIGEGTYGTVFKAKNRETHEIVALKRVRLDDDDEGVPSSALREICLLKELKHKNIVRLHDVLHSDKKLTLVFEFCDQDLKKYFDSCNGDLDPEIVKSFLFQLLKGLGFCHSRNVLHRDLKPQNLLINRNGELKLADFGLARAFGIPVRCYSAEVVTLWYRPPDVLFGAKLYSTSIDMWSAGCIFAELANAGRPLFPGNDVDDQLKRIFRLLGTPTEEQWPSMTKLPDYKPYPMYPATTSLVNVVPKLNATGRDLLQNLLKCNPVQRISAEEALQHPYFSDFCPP
CDK5/ p35, sequence (Q15078 whole entry partner, species assumed): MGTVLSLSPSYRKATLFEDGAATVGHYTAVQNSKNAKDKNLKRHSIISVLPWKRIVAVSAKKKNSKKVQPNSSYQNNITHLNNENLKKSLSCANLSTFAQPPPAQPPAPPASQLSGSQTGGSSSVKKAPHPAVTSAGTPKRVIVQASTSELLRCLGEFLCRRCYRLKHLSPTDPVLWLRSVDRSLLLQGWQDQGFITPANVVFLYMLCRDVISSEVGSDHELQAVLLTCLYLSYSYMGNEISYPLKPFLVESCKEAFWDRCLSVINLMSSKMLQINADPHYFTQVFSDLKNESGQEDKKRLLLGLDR
CDK4/ cyclin D1, sequence (P11802 whole entry, species assumed): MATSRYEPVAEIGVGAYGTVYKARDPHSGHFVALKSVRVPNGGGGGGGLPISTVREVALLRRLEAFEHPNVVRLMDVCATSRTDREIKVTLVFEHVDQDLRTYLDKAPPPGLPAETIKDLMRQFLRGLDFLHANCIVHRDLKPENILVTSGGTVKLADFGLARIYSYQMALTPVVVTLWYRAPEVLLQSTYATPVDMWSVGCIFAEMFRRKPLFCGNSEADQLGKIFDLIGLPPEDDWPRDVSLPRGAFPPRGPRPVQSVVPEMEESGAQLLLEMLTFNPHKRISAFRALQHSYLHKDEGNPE
CDK4/ cyclin D1, sequence (P24385 whole entry partner, species assumed): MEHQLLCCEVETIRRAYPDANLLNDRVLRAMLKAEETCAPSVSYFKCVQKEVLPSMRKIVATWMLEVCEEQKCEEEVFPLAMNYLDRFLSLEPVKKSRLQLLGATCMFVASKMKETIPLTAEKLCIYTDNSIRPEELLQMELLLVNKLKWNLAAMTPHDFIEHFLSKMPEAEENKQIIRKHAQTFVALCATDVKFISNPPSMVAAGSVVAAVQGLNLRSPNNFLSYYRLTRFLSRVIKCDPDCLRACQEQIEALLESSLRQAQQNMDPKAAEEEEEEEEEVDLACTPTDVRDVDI
epidermal growth factor receptor tyrosine kinase, sequence (P00533 25-1210): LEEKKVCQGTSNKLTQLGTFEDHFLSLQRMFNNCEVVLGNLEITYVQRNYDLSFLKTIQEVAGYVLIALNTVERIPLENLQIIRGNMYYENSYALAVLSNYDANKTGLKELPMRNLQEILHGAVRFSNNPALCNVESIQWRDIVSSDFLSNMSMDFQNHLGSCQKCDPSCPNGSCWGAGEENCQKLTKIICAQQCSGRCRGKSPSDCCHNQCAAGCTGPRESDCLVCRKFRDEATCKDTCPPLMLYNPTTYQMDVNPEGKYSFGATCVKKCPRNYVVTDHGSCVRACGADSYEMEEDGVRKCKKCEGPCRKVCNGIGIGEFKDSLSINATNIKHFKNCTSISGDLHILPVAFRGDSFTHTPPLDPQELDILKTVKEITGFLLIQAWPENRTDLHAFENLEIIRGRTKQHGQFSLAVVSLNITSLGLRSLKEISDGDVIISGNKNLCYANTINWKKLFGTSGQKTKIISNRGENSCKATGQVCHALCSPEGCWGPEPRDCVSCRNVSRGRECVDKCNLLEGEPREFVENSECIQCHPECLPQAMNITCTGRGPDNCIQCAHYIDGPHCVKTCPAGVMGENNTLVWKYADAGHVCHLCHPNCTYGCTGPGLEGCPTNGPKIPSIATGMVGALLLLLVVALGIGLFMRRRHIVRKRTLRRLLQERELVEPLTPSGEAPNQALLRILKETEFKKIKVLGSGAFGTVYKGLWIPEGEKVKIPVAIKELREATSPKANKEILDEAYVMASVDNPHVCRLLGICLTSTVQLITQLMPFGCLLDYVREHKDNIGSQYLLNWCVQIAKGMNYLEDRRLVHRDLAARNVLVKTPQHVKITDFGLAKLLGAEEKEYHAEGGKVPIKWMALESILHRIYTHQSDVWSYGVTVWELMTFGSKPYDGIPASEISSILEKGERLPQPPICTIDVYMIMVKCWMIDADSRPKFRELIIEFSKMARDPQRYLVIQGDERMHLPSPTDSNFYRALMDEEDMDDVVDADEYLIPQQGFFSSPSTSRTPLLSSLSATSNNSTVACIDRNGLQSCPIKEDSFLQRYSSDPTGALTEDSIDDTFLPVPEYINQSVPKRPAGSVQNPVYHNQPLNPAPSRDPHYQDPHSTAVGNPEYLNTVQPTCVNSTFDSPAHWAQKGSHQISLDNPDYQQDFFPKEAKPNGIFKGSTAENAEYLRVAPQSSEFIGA

IC50 (p34^cdc2/cyclinB; [9]): 6.5 µM
Structure (SMILES): O=C1Nc2ccccc2/C1=C1/Nc2ccc(Br)cc2C1=O [Example 8, 5'-Bromoindirubine]

Structure (SMILES): O=C1Nc2ccc(I)cc2/C1=C1/Nc2ccccc2C1=O [Example 2, 5-Iodoindirubine]
antitumor activity [1]: superior to that of indirubine | IC50 (p34^cdc2/cyclinB; [9]): 0.3 µM | IC50 PKC (PKC [2]): no Effect | IC50 (cdc25): 130 µM

IC50 (p34^cdc2/cyclinB; read-out: IC50-value for the p34^cdc2/cyclinB complex): 80 µM
Structure (SMILES): O=C1Nc2ccccc2/C1=C1\C(=O)Nc2ccccc21 [Example 12, Isoindigo]

IC50 (p34^cdc2/cyclinB; [9]): 2.2 µM | IC50 (cdc25): 60 µM
Structure (SMILES): O=C1Nc2ccc([N+](=O)[O-])cc2/C1=C1/Nc2ccccc2C1=O [Example 7, 5-Nitroindirubine]

IC50 (CDK2/ cyclin A): 70 µM | IC50 (p34^cdc2/cyclinB; [10]): > 1000 µM | IC50 (CDK2/ cyclin E): > 1000 µM | IC50 (CDK5/ p35; [11]): > 100 µM | IC50 (CDK4/ cyclin D1; calculated from dose response curves, Table 4, read-out: IC50 CDK4/ cyclin D1): > 100 µM
Structure (SMILES): O=C1/C(=C2\Nc3ccccc3C2=O)Nc2ccccc21 [indigo]

Structure (SMILES): CN1C(=O)/C(=C2/C(=O)Nc3ccccc32)c2ccccc21 [meisoindigo, N-Methyl-isoindigo]
complete and partial remission rate [3]: 81.3% | total response rate [3]: 90.1%

IC50 (p34^cdc2/cyclinB; [10]): 0.055 µM | IC50 (p34^cdc2/cyclinB; [9]): 0.055 µM | IC50 (CDK5/ p35; [11]): 0.065 µM | IC50 (cdc25): 110 µM
Structure (SMILES): O=C1Nc2ccc(S(=O)(=O)O)cc2C1=C1Nc2ccccc2C1=O [Example 11, Indirubine-5-sulfonic acid]

Structure (SMILES): O=C1Nc2ccc(F)cc2/C1=C1/Nc2ccccc2C1=O [Example 5, 5-Fluoroindirubine]
IC50 (p34^cdc2/cyclinB; [9]): 2 µM | IC50 (cdc25): 70 µM

Structure (SMILES): Cc1ccc2c(c1)C(=C1Nc3ccccc3C1=O)C(=O)N2 [Example 6, 5-Methylindirubine]
IC50 (p34^cdc2/cyclinB; [9]): 0.8 µM | IC50 (cdc25): 60 µM

Structure (SMILES): COC(=O)C1(Cc2ccc(O)c(CC=C(C)C)c2)OC(=O)C(O)=C1c1ccc(O)cc1 (stereo not drawn) [Butyro-lactone-I, Butyrolactone-I]
IC50 (MAPK): 94 µM | IC50 (PKC [4]): 160 µM | IC50 (CDK1): […] | IC50 [5]: > 590 µM

Structure (SMILES): O=C1Nc2ccc(Cl)cc2/C1=C1/Nc2ccccc2C1=O [Example 4, 5-Chloroindirubine]
IC50 (CDK2/ cyclin A): 0.75 µM | IC50 (p34^cdc2/cyclinB; [10]): 0.4 µM | IC50 (p34^cdc2/cyclinB; [9]): 0.4 µM | IC50 (CDK2/ cyclin E): 0.55 µM | IC50 (CDK5/ p35): 0.8 µM | IC50 (CDK4/ cyclin D1): 6.5 µM | IC50 (cdc25): 55 µM

Structure (SMILES): O=C1Nc2ccccc2C1=C1Nc2ccccc2C1=NO [Example 10, Indirubine-3'-oxime]
IC50 (CDK2/ cyclin A): 0.44 µM | apoptotic cell death [6]: induction of apoptotic cell death was observed | content of cyclin B complex (CDK1/cyclin B): significantly reduced | histone H1 phosphorylation as a measure for CDK1/cyclin B activity (CDK1/cyclin B): inhibit histone H1 phosphorylation | IC50 [7]: 3.3 ± 0.7 µM | arrest in G1-phase of the cell cycle [8, 12]: low micromolar concentrations | concentration at which additional arrest at G2/M-phase of the cell cycle became apparent [8, 12]: ≥ 5 µM | concentration giving significant increase of G2/M arrested cells ([8]; cells arrested in G2/M by Nocodazole treatment, after release of the block): ≥ 5 µM | IC50 (CDK2/ cyclin E): 0.25 µM

Structure (SMILES): CN[C@@H]1C[C@H]2O[C@@](C)([C@@H]1OC)n1c3ccccc3c3c4c(c5c6ccccc6n2c5c31)C(=O)N[C@@H]4O [UCN-01]
IC50 (PKC [4]): […] | IC50 (CDK1): 0.031 µM

IC50 (p34^cdc2/cyclinB; [9]): 7 µM
Structure (SMILES): O=C1Nc2ccc(Br)cc2/C1=C1/Nc2ccc(Br)cc2C1=O [Example 9, 5,5'-Dibromoindirubine]

Structure (SMILES): CN1CC[C@H](c2c(O)cc(O)c3c(=O)cc(-c4ccccc4Cl)oc23)[C@H](O)C1 [Flavopiridol]
IC50 (PKG): 6 µM

Structure (SMILES): CN[C@@H]1C[C@H]2O[C@@](C)([C@@H]1OC)n1c3ccccc3c3c4c(c5c6ccccc6n2c5c31)C(=O)NC4 [Staurosporine]
IC50 (PKG): 0.009 µM

Structure (SMILES): Cc1c2ccncc2c(C)c2c1[nH]c1ccc(O)cc12 [9-Hydroxy-ellipticine, 9-Hydroxyellipticin]
IC50 (CDK1): ~1 µM

IC50 (p34^cdc2/cyclinB; [9]): 0.35 µM | IC50 (cdc25): 32 µM
Structure (SMILES): O=C1Nc2ccc(Br)cc2/C1=C1/Nc2ccccc2C1=O [Example 3, 5-Bromoindirubine]

From patent publication EP1079826B1, “USE OF INDIGOID BISINDOLE DERIVATIVES FOR THE MANUFACTURE OF A MEDICAMENT TO INHIBIT CYCLIN DEPENDENT KINASES” (CNRS, Centre National de la Recherche Scientifique, priority 1998, dated 1999)
